Results as given in PubChem BioAssay AID256 (DTP/NCI, 2004).
“And” between values parts separate entries of the source, which are not always exact repeats. Equal entries are not always repeated. Toxic doses and inconclusive results are not listed. The calls were made as follows: active = survival T/C of 150% or more; inactive = T/C below 125% in these data.

System: CD2F1 mice, L1210 leukemia ip, survival T/C
Assay: NCI In Vivo Anticancer Drug Screen. Data for tumor model L1210 Leukemia (intraperitoneal) in CD2F1 (CDF1) mice
Settings: higher = longer survival
Protocol: The antitumor activity of compounds was measured in mice bearing transplantable tumors. Survival or tumor size were measured and the results are expressed as the measurement made in the treated group (T) divided by the measurement made in the vehicle treated control group (C). The tumor model used in this assay is L1210 Leukemia (intraperitoneal) in CD2F1 (CDF1) mice

[1] = endpoint: mean survival time, dose: 25.0 mg/kg/injection, schedule: Q04DX003 (ip), vehicle: saline
[2] = endpoint: mean survival time, dose: 50.0 mg/kg/injection, schedule: Q04DX003 (ip), vehicle: saline
[3] = endpoint: mean survival time, dose: 200.0 mg/kg/injection, schedule: Q01DX009 (ip), vehicle: saline with Tween-80
[4] = endpoint: mean survival time, dose: 100.0 mg/kg/injection, schedule: Q04DX002 (ip), vehicle: saline with Tween-80
[5] = endpoint: mean survival time, dose: 400.0 mg/kg/injection, schedule: Q04DX002 (ip), vehicle: saline with Tween-80
[6] = endpoint: mean survival time, dose: 100.0 mg/kg/injection, schedule: Q01DX009 (ip), vehicle: saline with Tween-80

Measured: T/C

Nc1ncnc2c1ncn2C1OC(CO)C(O)C1O (centres undefined)
inactive: endpoint: mean survival time, dose: 3.12 mg/kg/injection, schedule: Q01DX009 (ip), vehicle: Klucel (hydroxypropylcellulose) (HPC) 100 % of control | endpoint: mean survival time, dose: 6.25 mg/kg/injection, schedule: Q01DX009 (ip), vehicle: Klucel (hydroxypropylcellulose) (HPC) 100 % of control | endpoint: mean survival time, dose: 12.5 mg/kg/injection, schedule: Q01DX009 (ip), vehicle: Klucel (hydroxypropylcellulose) (HPC) 95 % of control | endpoint: mean survival time, dose: 18.7 mg/kg/injection, schedule: Q01DX009 (ip), vehicle: saline 87 % of control | endpoint: mean survival time, dose: 18.75 mg/kg/injection, schedule: Q01DX009 (ip), vehicle: saline 92 % of control | endpoint: mean survival time, dose: 18.75 mg/kg/injection, schedule: Q04DX003 (ip), vehicle: saline 97 % of control | endpoint: mean survival time, dose: 25.0 mg/kg/injection, schedule: Q01DX009 (ip), vehicle: Klucel (hydroxypropylcellulose) (HPC) 95 % of control | [1] 100 % of control | endpoint: mean survival time, dose: 37.5 mg/kg/injection, schedule: Q01DX009 (ip), vehicle: saline 86 % of control and 96 % of control | endpoint: mean survival time, dose: 37.5 mg/kg/injection, schedule: Q04DX003 (ip), vehicle: saline 98 % of control | [2] 100 % of control | endpoint: mean survival time, dose: 75.0 mg/kg/injection, schedule: Q01DX009 (ip), vehicle: saline 96 % of control | endpoint: mean survival time, dose: 110.0 mg/kg/injection, schedule: Q03HX024 (ip), vehicle: saline with Tween-80 120 % of control | endpoint: mean survival time, dose: 118.0 mg/kg/injection, schedule: Q01DX005 (ip), vehicle: water 102 % of control | endpoint: mean survival time, dose: 118.0 mg/kg/injection, schedule: Q01DX009 (ip), vehicle: water 104 % of control | endpoint: mean survival time, dose: 150.0 mg/kg/injection, schedule: Q01DX009 (ip), vehicle: saline 96 % of control and 100 % of control | endpoint: mean survival time, dose: 177.0 mg/kg/injection, schedule: Q01DX005 (ip), vehicle: water 99 % of control | endpoint: mean survival time, dose: 177.0 mg/kg/injection, schedule: Q01DX009 (ip), vehicle: water 117 % of control | [3] 117 % of control | endpoint: mean survival time, dose: 200.0 mg/kg/injection, schedule: Q03HX024 (ip), vehicle: saline with Tween-80 124 % of control | endpoint: mean survival time, dose: 266.0 mg/kg/injection, schedule: Q01DX005 (ip), vehicle: water 106 % of control | endpoint: mean survival time, dose: 266.0 mg/kg/injection, schedule: Q01DX009 (ip), vehicle: water 112 % of control | endpoint: mean survival time, dose: 300.0 mg/kg/injection, schedule: Q01DX009 (ip), vehicle: saline with Tween-80 114 % of control | endpoint: mean survival time, dose: 300.0 mg/kg/injection, schedule: Q01DX009 (ip), vehicle: saline 119 % of control and 97 % of control | endpoint: mean survival time, dose: 400.0 mg/kg/injection, schedule: Q01DX005 (ip), vehicle: water 108 % of control | endpoint: mean survival time, dose: 400.0 mg/kg/injection, schedule: Q01DX009 (ip), vehicle: water 112 % of control | endpoint: mean survival time, dose: 450.0 mg/kg/injection, schedule: Q01DX009 (ip), vehicle: saline with Tween-80 114 % of control | endpoint: mean survival time, dose: 600.0 mg/kg/injection, schedule: Q01DX005 (ip), vehicle: water 108 % of control | endpoint: mean survival time, dose: 600.0 mg/kg/injection, schedule: Q01DX009 (ip), vehicle: saline 105 % of control | endpoint: mean survival time, dose: 600.0 mg/kg/injection, schedule: Q01DX009 (ip), vehicle: water 114 % of control | endpoint: mean survival time, dose: 900.0 mg/kg/injection, schedule: Q01DX005 (ip), vehicle: water 113 % of control | endpoint: mean survival time, dose: 900.0 mg/kg/injection, schedule: Q01DX009 (ip), vehicle: water 109 % of control | endpoint: median survival time, dose: 1.56 mg/kg/injection, schedule: Q01DX009 (ip), vehicle: saline 111 % of control | endpoint: median survival time, dose: 3.12 mg/kg/injection, schedule: Q01DX009 (ip), vehicle: saline 109 % of control | endpoint: median survival time, dose: 6.25 mg/kg/injection, schedule: Q01DX009 (ip), vehicle: saline 110 % of control | endpoint: median survival time, dose: 11.25 mg/kg/injection, schedule: Q03HX012 (ip), vehicle: saline 112 % of control | endpoint: median survival time, dose: 12.5 mg/kg/injection, schedule: Q01DX009 (ip), vehicle: saline 108 % of control | endpoint: median survival time, dose: 22.5 mg/kg/injection, schedule: Q03HX012 (ip), vehicle: saline 107 % of control | endpoint: median survival time, dose: 25.0 mg/kg/injection, schedule: Q01DX009 (ip), vehicle: saline 115 % of control | endpoint: median survival time, dose: 45.0 mg/kg/injection, schedule: Q03HX012 (ip), vehicle: saline 112 % of control | endpoint: median survival time, dose: 50.0 mg/kg/injection, schedule: Q01DX009 (ip), vehicle: saline 79 % of control | endpoint: median survival time, dose: 90.0 mg/kg/injection, schedule: Q03HX012 (ip), vehicle: saline 116 % of control | endpoint: median survival time, dose: 180.0 mg/kg/injection, schedule: Q03HX012 (ip), vehicle: saline 122 % of control

O=C(O)CCc1nc(-c2cccc(Br)c2)n[nH]1
inactive: [4] 96 % of control | endpoint: mean survival time, dose: 200.0 mg/kg/injection, schedule: Q04DX002 (ip), vehicle: saline with Tween-80 107 % of control | [5] 103 % of control

CC(C)(CO)C(O)C(=O)NCCS(=O)c1ccc(F)cc1 (centres undefined)
inactive: endpoint: mean survival time, dose: 100.0 mg/kg/injection, schedule: Q04DX003 (ip), vehicle: other 100 % of control | endpoint: mean survival time, dose: 200.0 mg/kg/injection, schedule: Q04DX003 (ip), vehicle: other 96 % of control | endpoint: mean survival time, dose: 400.0 mg/kg/injection, schedule: Q04DX003 (ip), vehicle: other 100 % of control

COc1cc(NC(=O)Nc2cccc(Cl)c2)c(OC)cc1Cl
inactive: [4] 94 % of control | [5] 91 % of control

FC(F)(F)c1nn[nH]n1
inactive: endpoint: mean survival time, dose: 100.0 mg/kg/injection, schedule: Q01DX009 (ip), vehicle: saline 100 % of control | endpoint: mean survival time, dose: 200.0 mg/kg/injection, schedule: Q01DX009 (ip), vehicle: saline 104 % of control | endpoint: mean survival time, dose: 400.0 mg/kg/injection, schedule: Q01DX009 (ip), vehicle: saline 98 % of control

CC(=NCc1ccccc1)C(C)(O)c1ccccc1 (centres undefined)
inactive: endpoint: mean survival time, dose: 100.0 mg/kg/injection, schedule: Q01DX001 (ip), vehicle: saline 107 % of control | endpoint: mean survival time, dose: 200.0 mg/kg/injection, schedule: Q01DX001 (ip), vehicle: saline 101 % of control | endpoint: mean survival time, dose: 400.0 mg/kg/injection, schedule: Q01DX001 (ip), vehicle: saline 96 % of control

CNCCc1ccc2cc(OC)c(OC)cc2c1
inactive: endpoint: mean survival time, dose: 25.0 mg/kg/injection, schedule: Q01DX009 (ip), vehicle: saline sonified 104 % of control | endpoint: mean survival time, dose: 50.0 mg/kg/injection, schedule: Q01DX009 (ip), vehicle: saline sonified 104 % of control | endpoint: mean survival time, dose: 100.0 mg/kg/injection, schedule: Q01DX009 (ip), vehicle: saline sonified 104 % of control

CC(=O)OCC(=O)[C@@]1(O)CC[C@H]2[C@@H]3CCC4=CC(=O)C=C[C@]4(C)[C@@]3(F)[C@@H](O)C[C@@]21C
inactive: endpoint: mean survival time, dose: 12.5 mg/kg/injection, schedule: Q04DX003 (ip), vehicle: saline 104 % of control | [1] 104 % of control | [2] 107 % of control

CCCCCCCCCCCCCCCCC1CCCC1C1CCCC1 (centres undefined)
inactive: endpoint: mean survival time, dose: 100.0 mg/kg/injection, schedule: Q01DX001 (ip), vehicle: saline sonified 102 % of control | endpoint: mean survival time, dose: 200.0 mg/kg/injection, schedule: Q01DX001 (ip), vehicle: saline sonified 101 % of control | endpoint: mean survival time, dose: 400.0 mg/kg/injection, schedule: Q01DX001 (ip), vehicle: saline sonified 96 % of control

C/C=C(\NC1CCCCC1)C(=O)c1ccccc1
inactive: endpoint: mean survival time, dose: 100.0 mg/kg/injection, schedule: Q01DX009 (ip), vehicle: Klucel (hydroxypropylcellulose) (HPC) 100 % of control | endpoint: mean survival time, dose: 100.0 mg/kg/injection, schedule: Q04DX003 (ip), vehicle: Klucel (hydroxypropylcellulose) (HPC) 101 % of control | endpoint: mean survival time, dose: 200.0 mg/kg/injection, schedule: Q01DX009 (ip), vehicle: Klucel (hydroxypropylcellulose) (HPC) 109 % of control | endpoint: mean survival time, dose: 200.0 mg/kg/injection, schedule: Q04DX003 (ip), vehicle: Klucel (hydroxypropylcellulose) (HPC) 100 % of control | endpoint: mean survival time, dose: 400.0 mg/kg/injection, schedule: Q04DX003 (ip), vehicle: Klucel (hydroxypropylcellulose) (HPC) 97 % of control

Nc1cccc2scnc12
inactive: [6] 104 % of control | [3] 96 % of control

O=C(N/N=C/c1ccc([N+](=O)[O-])o1)c1ccccc1N=Cc1ccc([N+](=O)[O-])o1
inactive: [6] 96 % of control | [3] 98 % of control | endpoint: mean survival time, dose: 400.0 mg/kg/injection, schedule: Q01DX009 (ip), vehicle: saline with Tween-80 104 % of control

O=C1CC2C3=C(CCC3)CCN2C2=C1CC(OC(=O)c1ccccc1)CC2 (centres undefined)
inactive: endpoint: mean survival time, dose: 12.5 mg/kg/injection, schedule: Q04DX003 (ip), vehicle: saline with Tween-80 90 % of control | endpoint: mean survival time, dose: 25.0 mg/kg/injection, schedule: Q04DX003 (ip), vehicle: saline with Tween-80 88 % of control | endpoint: mean survival time, dose: 50.0 mg/kg/injection, schedule: Q04DX003 (ip), vehicle: saline with Tween-80 94 % of control
